Among the data in article PMC10910475, “Synthesis and biological profile of 2,3-dihydro[1,3]thiazolo[4,5-b]pyridines, a novel class of acyl-ACP thioesterase inhibitors” (Beilstein Journal of Organic Chemistry, 2024) are pI50 values, retold here.

This assay concerns the target T1, LpFAT A (FAT A from LEMPA; acyl-ACP thioesterase) (Lemna aequinoctialis, UniProt Z9A7P1QTQ5).
T1 construct: chloroplast transit peptide replaced by N-terminal 6xHis-tag; pET24; E. coli BL21Star(DE3); Ni-NTA purified
T1 sequence (Z9A7P1QTQ5 10-320): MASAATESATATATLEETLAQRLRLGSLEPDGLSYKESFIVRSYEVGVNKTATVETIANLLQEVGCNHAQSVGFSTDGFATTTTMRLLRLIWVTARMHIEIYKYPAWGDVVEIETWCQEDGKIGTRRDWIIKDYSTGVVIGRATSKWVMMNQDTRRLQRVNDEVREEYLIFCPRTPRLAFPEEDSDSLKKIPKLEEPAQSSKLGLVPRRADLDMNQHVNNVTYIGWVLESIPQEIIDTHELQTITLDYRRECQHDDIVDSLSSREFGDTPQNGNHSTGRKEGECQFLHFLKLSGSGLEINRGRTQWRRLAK
The experiment in a line: fluorescence polarization competition with fluorescent tracer. Particulars: 25 mM potassium phosphate pH 7.3, 200 mM NaCl, 0.01% Triton X-100, 2 nM tracer, room temperature; value is negative log. Format: binding. The source says:
fluorescence polarization competition with fluorescent tracer on LpFAT A (FAT A from LEMPA; acyl-ACP thioesterase)

In turn, `Cc1cc2c(nc1-c1ccccc1)NCS2` [7a] had a pI50 of 5.9.

In turn, `Cc1cc2c(nc1-c1ccccc1F)NCS2` [7b, 5-(2-Fluorophenyl)-6-methyl-2,3-dihydro[1,3]thiazolo[4,5-b]pyridine] gave a pI50 of 6.1.

In turn, `Cc1ccccc1-c1nc2c(cc1C)SCN2` [7c] registered a pI50 of 6.3.

`Brc1cc2c(nc1-c1ccccc1)NCS2` [13a, 6-Bromo-5-phenyl-2,3-dihydrothiazolo[4,5-b]pyridine] had a pI50 of 5.7.

`Fc1ccccc1-c1nc2c(cc1Br)SCN2` [13b, 6-bromo-5-(2-fluorophenyl)-2,3-dihydro[1,3]thiazolo[4,5-b]pyridine] registered a pI50 of 7.3.

As to `Cc1ccccc1-c1nc2c(cc1Br)SCN2` [13c, 6-bromo-5-(2-tolyl)-2,3-dihydrothiazolo[4,5-b]pyridine], the pI50 was determined as 4.5.

In turn, `CC(=O)N1CSc2cc(Br)c(-c3ccccc3)nc21` [14a] yielded a pI50 of 5.5.

Consider `CC(C)C(=O)N1CSc2cc(Br)c(-c3ccccc3F)nc21` [14b], for which the pI50 is 4.7.

Take `CC(=O)N1CSc2cc(Br)c(-c3ccccc3C)nc21` [14c]: the pI50 worked out at 4.3.

`CC(=O)N1CSc2cc(C)c(-c3ccccc3)nc21` [16a] had a pI50 of 5.5.

For the compound `Cc1cc2c(nc1-c1ccccc1)N(C(=O)C(C)C)CS2` [16b], the pI50 is 4.7.

Regarding `CC(=O)N1CSc2cc(C)c(-c3ccccc3F)nc21` [16c, 1-[5-(2-fluorophenyl)-6-methyl[1,3]thiazolo[4,5-b]pyridin-3(2H)-yl]ethanone], the pI50 was 5.3.

Consider `Cc1cc2c(nc1-c1ccccc1F)N(C(=O)C(C)C)CS2` [16d], for which the pI50 stood at 4.7.

As for `CC(=O)N1CSc2cc(C)c(-c3ccccc3C)nc21` [16e], the pI50 was 4.1.

Compound `Cc1ccccc1-c1nc2c(cc1C)SCN2C(=O)C(C)C` [16f] yielded a pI50 of 4.8.

`BN1CSc2cc(Br)c(-c3ccccc3C)nc21` [17d, aminoborane 17d] came in with a pI50 of 4.8.

In the case of `Cc1ccccc1-c1nc2c(cc1Br)SCN2B1NB(N)N1` [17e, aminoborane 17e], the pI50 was less than 4.0.

Turning to `Cc1ccccc1COC1CC2(C(C)C)CCC1(C)O2` (centres unmarked) [compound 1, cinmethylin, reference compound], the pI50 is 6.8.

In turn, `Cc1ccsc1C1=NOC(C)(COCc2c(F)cccc2F)C1` (centres unmarked) [compound 2, methiozolin, reference compound] had a pI50 of 7.1.

For the compound `Cc1cc2scnc2nc1-c1ccccc1F` [compound 5, 5-(2-fluorophenyl)-6-methyl[1,3]thiazolo[4,5-b]pyridine, reference compound], the pI50 stood at 7.2.
